{"source": "PubChem BioAssay (NCI)", "test_in_all_cases": "inhibition of tumour cell growth, NCI panel, 48 h", "key": {"A498 renal": {"system": "A498 renal"}, "A549 NSCLC": {"system": "A549 NSCLC"}, "ACHN renal": {"system": "ACHN renal"}, "BT-549 breast": {"system": "BT-549 breast"}, "CAKI-1 renal": {"system": "CAKI-1 renal"}, "CCRF-CEM leukemia": {"system": "CCRF-CEM leukemia"}, "COLO 205 colon": {"system": "COLO 205 colon"}, "DU-145 prostate": {"system": "DU-145 prostate"}, "EKVX NSCLC": {"system": "EKVX NSCLC"}, "HCC-2998 colon": {"system": "HCC-2998 colon"}, "HL-60(TB) leukemia": {"system": "HL-60(TB) leukemia"}, "HOP-62 NSCLC": {"system": "HOP-62 NSCLC"}, "HOP-92 NSCLC": {"system": "HOP-92 NSCLC"}, "HS 578T breast": {"system": "HS 578T breast"}, "IGROV1 ovarian": {"system": "IGROV1 ovarian"}, "K-562 leukemia": {"system": "K-562 leukemia"}, "KM12 colon": {"system": "KM12 colon"}, "M14 melanoma": {"system": "M14 melanoma"}, "MALME-3M melanoma": {"system": "MALME-3M melanoma"}, "MDA-MB-231 breast": {"system": "MDA-MB-231 breast"}, "MDA-MB-435": {"system": "MDA-MB-435"}, "MDA-MB-468 breast": {"system": "MDA-MB-468 breast"}, "MOLT-4 leukemia": {"system": "MOLT-4 leukemia"}, "NCI-H226 lung": {"system": "NCI-H226 lung"}, "NCI-H23 lung": {"system": "NCI-H23 lung"}, "NCI-H460 lung": {"system": "NCI-H460 lung"}, "NCI/ADR-RES ovarian": {"system": "NCI/ADR-RES ovarian"}, "OVCAR-3 ovarian": {"system": "OVCAR-3 ovarian"}, "OVCAR-4 ovarian": {"system": "OVCAR-4 ovarian"}, "OVCAR-5 ovarian": {"system": "OVCAR-5 ovarian"}, "PC-3 prostate": {"system": "PC-3 prostate"}, "RPMI-8226 leukemia": {"system": "RPMI-8226 leukemia"}, "RXF 393 renal": {"system": "RXF 393 renal"}, "SF-268 CNS": {"system": "SF-268 CNS"}, "SF-539 CNS": {"system": "SF-539 CNS"}, "SK-MEL-2 melanoma": {"system": "SK-MEL-2 melanoma"}, "SK-MEL-28 melanoma": {"system": "SK-MEL-28 melanoma"}, "SK-OV-3 ovarian": {"system": "SK-OV-3 ovarian"}, "SN12C renal": {"system": "SN12C renal"}, "SNB-19 CNS": {"system": "SNB-19 CNS"}, "SNB-75 CNS": {"system": "SNB-75 CNS"}, "SR leukemia": {"system": "SR leukemia"}, "T-47D breast": {"system": "T-47D breast"}, "TK-10 renal": {"system": "TK-10 renal"}, "UACC-62 melanoma": {"system": "UACC-62 melanoma"}, "UO-31 renal": {"system": "UO-31 renal"}}, "note": "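Five concentrations, 48 hours, 96-well plates. GI50 is the concentration that inhibits growth by half. TGI is the concentration that stops growth completely.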"}
{"smiles": "CN1CCN(c2ccc(Nc3nc(N4CCN(S(=O)(=O)c5ccc(Cl)cc5)CC4)c4sccc4n3)cc2)CC1", "values": [{"measurement": "GI50", "setting": "A498 renal", "value": 17.5, "unit": "µM"}, {"measurement": "TGI", "setting": "A498 renal", "value": 31.6, "unit": "µM"}, {"measurement": "GI50", "setting": "A549 NSCLC", "value": 4.35, "unit": "µM"}, {"measurement": "TGI", "setting": "A549 NSCLC", "value": 24.9, "unit": "µM"}, {"measurement": "GI50", "setting": "ACHN renal", "value": 3.03, "unit": "µM"}, {"measurement": "TGI", "setting": "ACHN renal", "value": 11.4, "unit": "µM"}, {"measurement": "GI50", "setting": "BT-549 breast", "value": 20.8, "unit": "µM"}, {"measurement": "TGI", "setting": "BT-549 breast", "value": 58.7, "unit": "µM"}, {"measurement": "GI50", "setting": "CAKI-1 renal", "value": 11.6, "unit": "µM"}, {"measurement": "TGI", "setting": "CAKI-1 renal", "value": 27.8, "unit": "µM"}, {"measurement": "GI50", "setting": "CCRF-CEM leukemia", "value": 4.47, "unit": "µM"}, {"measurement": "TGI", "setting": "CCRF-CEM leukemia", "value": 32.6, "unit": "µM"}, {"measurement": "GI50", "setting": "COLO 205 colon", "value": 2.67, "unit": "µM"}, {"measurement": "TGI", "setting": "COLO 205 colon", "value": 7.54, "unit": "µM"}, {"measurement": "GI50", "setting": "DU-145 prostate", "value": 3.36, "unit": "µM"}, {"measurement": "TGI", "setting": "DU-145 prostate", "value": 10.8, "unit": "µM"}, {"measurement": "GI50", "setting": "EKVX NSCLC", "value": 22, "unit": "µM"}, {"measurement": "TGI", "setting": "EKVX NSCLC", "value": 59.8, "unit": "µM"}, {"measurement": "GI50", "setting": "HCC-2998 colon", "value": 2.64, "unit": "µM"}, {"measurement": "TGI", "setting": "HCC-2998 colon", "value": 6.18, "unit": "µM"}, {"measurement": "GI50", "setting": "HL-60(TB) leukemia", "value": 2.1, "unit": "µM"}, {"measurement": "TGI", "setting": "HL-60(TB) leukemia", "value": 4.47, "unit": "µM"}, {"measurement": "GI50", "setting": "HOP-62 NSCLC", "value": 28.9, "unit": "µM"}, {"measurement": "TGI", "setting": "HOP-62 NSCLC", "value": 88.8, "unit": "µM"}, {"measurement": "GI50", "setting": "HOP-92 NSCLC", "value": 10.7, "unit": "µM"}, {"measurement": "TGI", "setting": "HOP-92 NSCLC", "value": 28.7, "unit": "µM"}, {"measurement": "GI50", "setting": "HS 578T breast", "value": 13.1, "unit": "µM"}, {"measurement": "TGI", "setting": "HS 578T breast", "value": 46.7, "unit": "µM"}, {"measurement": "GI50", "setting": "IGROV1 ovarian", "value": 14.5, "unit": "µM"}, {"measurement": "TGI", "setting": "IGROV1 ovarian", "value": 44.8, "unit": "µM"}, {"measurement": "GI50", "setting": "K-562 leukemia", "value": 2.16, "unit": "µM"}, {"measurement": "TGI", "setting": "K-562 leukemia", "value": 6.04, "unit": "µM"}, {"measurement": "GI50", "setting": "KM12 colon", "value": 4.85, "unit": "µM"}, {"measurement": "TGI", "setting": "KM12 colon", "value": 20, "unit": "µM"}, {"measurement": "GI50", "setting": "M14 melanoma", "value": 1.85, "unit": "µM"}, {"measurement": "TGI", "setting": "M14 melanoma", "value": 3.62, "unit": "µM"}, {"measurement": "GI50", "setting": "MALME-3M melanoma", "value": 1.64, "unit": "µM"}, {"measurement": "TGI", "setting": "MALME-3M melanoma", "value": 3.03, "unit": "µM"}, {"measurement": "GI50", "setting": "MDA-MB-231 breast", "value": 1.71, "unit": "µM"}, {"measurement": "TGI", "setting": "MDA-MB-231 breast", "value": 3.27, "unit": "µM"}, {"measurement": "GI50", "setting": "MDA-MB-435", "value": 1.76, "unit": "µM"}, {"measurement": "TGI", "setting": "MDA-MB-435", "value": 3.31, "unit": "µM"}, {"measurement": "GI50", "setting": "MDA-MB-468 breast", "value": 1.64, "unit": "µM"}, {"measurement": "TGI", "setting": "MDA-MB-468 breast", "value": 3.14, "unit": "µM"}, {"measurement": "GI50", "setting": "MOLT-4 leukemia", "value": 2.21, "unit": "µM"}, {"measurement": "TGI", "setting": "MOLT-4 leukemia", "value": 5.78, "unit": "µM"}, {"measurement": "GI50", "setting": "NCI-H226 lung", "value": 18.7, "unit": "µM"}, {"measurement": "TGI", "setting": "NCI-H226 lung", "value": 55.5, "unit": "µM"}, {"measurement": "GI50", "setting": "NCI-H23 lung", "value": 19.1, "unit": "µM"}, {"measurement": "TGI", "setting": "NCI-H23 lung", "value": 66.3, "unit": "µM"}, {"measurement": "GI50", "setting": "NCI-H460 lung", "value": 1.93, "unit": "µM"}, {"measurement": "TGI", "setting": "NCI-H460 lung", "value": 3.69, "unit": "µM"}, {"measurement": "GI50", "setting": "NCI/ADR-RES ovarian", "value": 10.9, "unit": "µM"}, {"measurement": "TGI", "setting": "NCI/ADR-RES ovarian", "value": 39.7, "unit": "µM"}, {"measurement": "GI50", "setting": "OVCAR-3 ovarian", "value": 2.85, "unit": "µM"}, {"measurement": "TGI", "setting": "OVCAR-3 ovarian", "value": 7.42, "unit": "µM"}, {"measurement": "GI50", "setting": "OVCAR-4 ovarian", "value": 14.9, "unit": "µM"}, {"measurement": "TGI", "setting": "OVCAR-4 ovarian", "value": 38.7, "unit": "µM"}, {"measurement": "GI50", "setting": "OVCAR-5 ovarian", "value": 15.6, "unit": "µM"}, {"measurement": "TGI", "setting": "OVCAR-5 ovarian", "value": 39.5, "unit": "µM"}, {"measurement": "GI50", "setting": "PC-3 prostate", "value": 4.01, "unit": "µM"}, {"measurement": "TGI", "setting": "PC-3 prostate", "value": "> 100", "unit": "µM"}, {"measurement": "GI50", "setting": "RPMI-8226 leukemia", "value": 2.89, "unit": "µM"}, {"measurement": "TGI", "setting": "RPMI-8226 leukemia", "value": 6.13, "unit": "µM"}, {"measurement": "GI50", "setting": "RXF 393 renal", "value": 1.91, "unit": "µM"}, {"measurement": "TGI", "setting": "RXF 393 renal", "value": 3.68, "unit": "µM"}, {"measurement": "GI50", "setting": "SF-268 CNS", "value": 13.5, "unit": "µM"}, {"measurement": "TGI", "setting": "SF-268 CNS", "value": 39, "unit": "µM"}, {"measurement": "GI50", "setting": "SF-539 CNS", "value": 1.69, "unit": "µM"}, {"measurement": "TGI", "setting": "SF-539 CNS", "value": 3.16, "unit": "µM"}, {"measurement": "GI50", "setting": "SK-MEL-2 melanoma", "value": 19.4, "unit": "µM"}, {"measurement": "TGI", "setting": "SK-MEL-2 melanoma", "value": 40.1, "unit": "µM"}, {"measurement": "GI50", "setting": "SK-MEL-28 melanoma", "value": 1.73, "unit": "µM"}, {"measurement": "TGI", "setting": "SK-MEL-28 melanoma", "value": 3.36, "unit": "µM"}, {"measurement": "GI50", "setting": "SK-OV-3 ovarian", "value": 26.8, "unit": "µM"}, {"measurement": "TGI", "setting": "SK-OV-3 ovarian", "value": 69.2, "unit": "µM"}, {"measurement": "GI50", "setting": "SN12C renal", "value": 13.7, "unit": "µM"}, {"measurement": "TGI", "setting": "SN12C renal", "value": 34.7, "unit": "µM"}, {"measurement": "GI50", "setting": "SNB-19 CNS", "value": 3.69, "unit": "µM"}, {"measurement": "TGI", "setting": "SNB-19 CNS", "value": 17.1, "unit": "µM"}, {"measurement": "GI50", "setting": "SNB-75 CNS", "value": 9.97, "unit": "µM"}, {"measurement": "TGI", "setting": "SNB-75 CNS", "value": 24.3, "unit": "µM"}, {"measurement": "GI50", "setting": "SR leukemia", "value": 1.92, "unit": "µM"}, {"measurement": "TGI", "setting": "SR leukemia", "value": 4.82, "unit": "µM"}, {"measurement": "GI50", "setting": "T-47D breast", "value": 7.17, "unit": "µM"}, {"measurement": "TGI", "setting": "T-47D breast", "value": 35.9, "unit": "µM"}, {"measurement": "GI50", "setting": "TK-10 renal", "value": 6.47, "unit": "µM"}, {"measurement": "TGI", "setting": "TK-10 renal", "value": 21.6, "unit": "µM"}, {"measurement": "GI50", "setting": "UACC-62 melanoma", "value": 1.71, "unit": "µM"}, {"measurement": "TGI", "setting": "UACC-62 melanoma", "value": 3.25, "unit": "µM"}, {"measurement": "GI50", "setting": "UO-31 renal", "value": 13.7, "unit": "µM"}, {"measurement": "TGI", "setting": "UO-31 renal", "value": 29.6, "unit": "µM"}]}
